This note sets out measurements from PubChem BioAssay (NCI).

Some test systems named below: A549 NSCLC; HOP-62 NSCLC; M14 melanoma; NCI-H522 lung; NCI/ADR-RES ovarian; OVCAR-3 ovarian; OVCAR-8 ovarian; RXF 393 renal; SK-MEL-28 melanoma; UO-31 renal.
What all share (experiment): growth of human tumour cells (NCI), 48 h

Molecules are shown by their SMILES. “And” between values parts separate entries of the source, which are not always exact repeats. Equal entries are not always repeated.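 Following 48 hours of exposure in 96-well plates, responses at five concentrations were used to interpolate endpoints linearly. GI50 marks 50% less growth. TGI denotes the concentration required for complete inhibition of growth.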

For the compound `CC(C)C[C@H](NC(=O)[C@H](Cc1ccccc1)NC(=O)c1cnccn1)B(O)O`, the GI50 with A549 NSCLC was < 0.0112 µM and 0.00362 µM; in the assay on HOP-62 NSCLC, < 0.0131 µM and 0.00317 µM; with M14 melanoma it was 0.00322 µM; with NCI-H522 lung, 0.00143 µM; in the assay on NCI/ADR-RES ovarian, 0.0613 µM; in the assay on OVCAR-3 ovarian, 0.00104 µM. In addition, the GI50 in the assay with OVCAR-8 ovarian was 0.0175 µM and 0.00427 µM; with RXF 393 renal, 0.00119 µM; with SK-MEL-28 melanoma it was 0.00104 µM; with UO-31 renal, 0.00193 µM. Moreover, the TGI with A549 NSCLC was 5.02 µM and 0.615 µM; in the assay with M14 melanoma it was < 0.0184 µM and 0.0321 µM; with NCI-H522 lung, < 0.215 µM and 0.00414 µM; in the assay with OVCAR-3 ovarian, < 0.0124 µM and 0.00238 µM; with RXF 393 renal, < 0.01 µM and 0.00255 µM; in the assay with UO-31 renal, 0.0228 µM and 0.0179 µM.

Turning to `COC1=CC(=O)c2c(O)c3c(c(O)c2C1=O)OC1(Oc2c(cc4cc(C)oc(=O)c4c2O)CC1O)C3O` (centres undefined), the TGI in the assay on A549 NSCLC is over 100 µM; in the assay on HOP-62 NSCLC it was over 100 µM; with M14 melanoma, over 100 µM; in the assay with NCI-H522 lung, 54.6 µM; in the assay on NCI/ADR-RES ovarian, over 100 µM; in the assay with OVCAR-3 ovarian, over 100 µM. The TGI in the assay on OVCAR-8 ovarian, in the assay on SK-MEL-28 melanoma and in the assay with UO-31 renal was over 100 µM each time.

Regarding `Cc1cc(C)nc(NS(=O)(=O)c2ccc(Nc3nc4nc(NCc5ccccc5)nc(-c5ccc(O)cc5)c4c(=O)[nH]3)cc2)n1`, the GI50 is 18.9 µM in the assay on A549 NSCLC; over 100 µM in the assay on HOP-62 NSCLC; 37.5 µM in the assay with M14 melanoma; 2.61 µM in the assay with NCI-H522 lung; over 100 µM with NCI/ADR-RES ovarian; 6.18 µM with OVCAR-3 ovarian. Moreover, the GI50 in the assay on OVCAR-8 ovarian was 36.5 µM; with SK-MEL-28 melanoma it was 13.4 µM; in the assay with UO-31 renal, 6.39 µM. Also, the TGI is over 100 µM in the assay with A549 NSCLC; over 100 µM in the assay with HOP-62 NSCLC; over 100 µM in the assay with M14 melanoma; 22.8 µM in the assay on NCI-H522 lung; over 100 µM with NCI/ADR-RES ovarian; 29.5 µM in the assay on OVCAR-3 ovarian. For the same compound, the TGI in the assay on OVCAR-8 ovarian, in the assay with SK-MEL-28 melanoma and in the assay with UO-31 renal was over 100 µM each time.

`O=C1C2=C(C(=O)c3c(O)ccc(O)c31)N(c1cccnc1)Cc1ccccc1O2`: the GI50 in the assay with A549 NSCLC was 2.85 µM; with HOP-62 NSCLC, 2.29 µM; with M14 melanoma, 0.26 µM; in the assay on NCI-H522 lung it was 0.0288 µM; in the assay with NCI/ADR-RES ovarian, 0.861 µM; in the assay on OVCAR-8 ovarian, 0.552 µM. Also, the GI50 is 0.182 µM in the assay with RXF 393 renal, 0.266 µM in the assay with SK-MEL-28 melanoma and 0.182 µM in the assay on UO-31 renal. For the same compound, the TGI in the assay on A549 NSCLC is 19.9 µM; in the assay on HOP-62 NSCLC, 6.64 µM; in the assay with M14 melanoma, 0.771 µM; with NCI-H522 lung, 0.112 µM; in the assay with NCI/ADR-RES ovarian, over 25.9 µM; in the assay on OVCAR-8 ovarian, 3.43 µM. Moreover, the TGI in the assay with RXF 393 renal is 0.367 µM; in the assay on SK-MEL-28 melanoma, 0.644 µM; in the assay with UO-31 renal, 0.398 µM.

In the case of `CCCCCCCCCCCCCCCCCc1cc(Cl)nc(Cl)n1`, the TGI in the assay with A549 NSCLC, with HOP-62 NSCLC, with M14 melanoma, in the assay on NCI/ADR-RES ovarian, in the assay with OVCAR-3 ovarian and with OVCAR-8 ovarian was over 100 µM in each case. Besides, the TGI in the assay on RXF 393 renal, with SK-MEL-28 melanoma and in the assay with UO-31 renal was over 100 µM each time.

`Oc1ccccc1/C=N/Nc1nc2ccccc2s1`: the GI50 is 6.52 µM in the assay with A549 NSCLC; 5.56 µM in the assay on HOP-62 NSCLC; 4.74 µM in the assay with NCI-H522 lung; 6.1 µM in the assay with NCI/ADR-RES ovarian; 2.46 µM with OVCAR-3 ovarian; 12 µM in the assay on OVCAR-8 ovarian. The GI50 is 13.7 µM in the assay with RXF 393 renal, 89 µM with SK-MEL-28 melanoma and 4.86 µM in the assay with UO-31 renal. In addition, the TGI was over 100 µM in the assay on A549 NSCLC; over 100 µM in the assay on HOP-62 NSCLC; over 100 µM in the assay on NCI-H522 lung; over 100 µM in the assay on NCI/ADR-RES ovarian; 34.7 µM in the assay on OVCAR-3 ovarian; over 100 µM with OVCAR-8 ovarian. The TGI with RXF 393 renal was 39 µM; in the assay with SK-MEL-28 melanoma it was over 100 µM; in the assay with UO-31 renal, over 100 µM.

Regarding `COc1cc(-c2nn(-c3ccc(NC(=O)Nc4ccc(Cl)c(C(F)(F)F)c4)cc3)cc2-c2ccncc2)ccc1Cl`, the GI50 with A549 NSCLC is 2.66 µM; with HOP-62 NSCLC it was 1.9 µM; in the assay with M14 melanoma, 1.74 µM; with NCI/ADR-RES ovarian, 2.12 µM; in the assay on OVCAR-3 ovarian, 1.57 µM; in the assay on OVCAR-8 ovarian, 2.03 µM. Moreover, the GI50 in the assay with RXF 393 renal was 1.54 µM; in the assay with SK-MEL-28 melanoma, 1.88 µM; in the assay on UO-31 renal, 1.44 µM. The TGI amounted to 11.4 µM with A549 NSCLC; 3.93 µM with HOP-62 NSCLC; 3.63 µM in the assay on M14 melanoma; 7.85 µM in the assay on NCI/ADR-RES ovarian; 3.59 µM with OVCAR-3 ovarian; 7.83 µM in the assay with OVCAR-8 ovarian. For the same compound, the TGI came to 4.41 µM in the assay on RXF 393 renal, 3.9 µM with SK-MEL-28 melanoma and 3.13 µM in the assay on UO-31 renal.

For the compound `Cc1c(C)n(CC(O)CNC2CCCCC2C)c2ccccc12` (centres undefined), the GI50 in the assay with A549 NSCLC is 16.9 µM; in the assay on HOP-62 NSCLC, 16.6 µM; in the assay on NCI/ADR-RES ovarian it was 15.5 µM; with OVCAR-3 ovarian, 16.4 µM; with OVCAR-8 ovarian, 16.2 µM; in the assay with RXF 393 renal, 10.5 µM. Moreover, the GI50 was 14 µM in the assay on SK-MEL-28 melanoma and 10.8 µM in the assay on UO-31 renal. Moreover, the TGI in the assay on A549 NSCLC was determined as 32.8 µM; in the assay on HOP-62 NSCLC, 32 µM; in the assay on NCI/ADR-RES ovarian it was 29.8 µM; in the assay with OVCAR-3 ovarian it was 29.9 µM; in the assay on OVCAR-8 ovarian, 31.2 µM; in the assay with RXF 393 renal, 23 µM. Further, the TGI with SK-MEL-28 melanoma is 27.4 µM; in the assay with UO-31 renal, 23.4 µM.

Take `S=P(C1CCCCC1)(C1CCCCC1)C(c1cccnc1)N1CCCC1` (centres undefined): the TGI in the assay on A549 NSCLC is 35.4 µM; in the assay on HOP-62 NSCLC, 36.2 µM; in the assay on M14 melanoma, 34.6 µM; in the assay on NCI-H522 lung it was 41.2 µM; in the assay with NCI/ADR-RES ovarian it was 38.6 µM; in the assay on OVCAR-3 ovarian it was over 100 µM. In addition, the values for the TGI in the assay on OVCAR-8 ovarian, in the assay on RXF 393 renal and in the assay with SK-MEL-28 melanoma were 51.7 µM, 33.4 µM and over 100 µM, respectively.

As for `Nc1nc2ccccc2c2[nH]c3ccccc3c12`, the GI50 was 1.09 µM in the assay with A549 NSCLC; 1.13 µM in the assay on HOP-62 NSCLC; 1.6 µM in the assay on M14 melanoma; 0.901 µM in the assay with NCI-H522 lung; 1.42 µM in the assay with OVCAR-3 ovarian; 0.985 µM in the assay on OVCAR-8 ovarian. In addition, the results for the GI50 in the assay with RXF 393 renal, in the assay with SK-MEL-28 melanoma and in the assay on UO-31 renal were 0.311 µM, 1.79 µM and 1.31 µM, respectively. Also, the TGI with A549 NSCLC is 2.37 µM; with HOP-62 NSCLC it was 2.44 µM; in the assay on M14 melanoma, 2.95 µM; in the assay with NCI-H522 lung, 2.14 µM; in the assay with OVCAR-3 ovarian, 4.37 µM; with OVCAR-8 ovarian, 2.16 µM. For the same compound, the TGI turned out to be 1.48 µM with RXF 393 renal, 3.19 µM in the assay on SK-MEL-28 melanoma and 2.61 µM in the assay on UO-31 renal.
